According to EP0745595A1, “3-(3-Aryloxyphenyl)-1-(substituted methyl)-s-triazine-2,4,6-oxo or thiotrione herbicidal agents” (American Cyanamid Company, priority 1995, dated 1996):

Columns and labels:
Assay type in all cases: in vivo
[1] = system: ABUTILON THEOPHRASTI, MEDIC.; assay: Postemergence herbicidal evaluation, ABUTH (Velvetleaf); details: Rate 0.500 kg/ha
Procedure, shortened: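 Velvetleaf (Abutilon theophrasti) seedlings were raised in jiffy flats for about two weeks and then sprayed postemergence. The test compound was dispersed in a 50/50 acetone/water mixture containing 0.5% TWEEN®20 and applied through a nozzle operating at 40 psi. Plants were kept on greenhouse benches and rated 0-9 four to five weeks after treatment.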

[2] = system: AMBROSIA ARTEMISIIFOLIA, L.; assay: Postemergence herbicidal evaluation, AMBEL (Ragweed, Common); details: Rate 0.500 kg/ha
Procedure, shortened: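 Common ragweed (Ambrosia artemisiifolia) seedlings were raised in jiffy flats for roughly two weeks, then sprayed postemergence through a nozzle at 40 psi with the test compound dispersed in 50/50 acetone/water carrying 0.5% TWEEN®20. The plants were kept on greenhouse benches under conventional care. Four to five weeks later, injury was rated visually on a 0-9 scale, and repeat tests were averaged.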

CHENOPODIUM ALBUM, L. [3] = assay: Postemergence herbicidal evaluation, CHEAL (Lambsquarters, Common); details: Rate 0.500 kg/ha
Procedure, shortened: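 Seedlings of common lambsquarters (Chenopodium album) were raised in jiffy flats for roughly two weeks, then sprayed postemergence through a nozzle at 40 psi with test compound dispersed in 50/50 acetone/water containing 0.5% TWEEN®20 surfactant. Plants were kept on greenhouse benches under standard care and rated visually on a 0-9 scale versus controls.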

IPOMOEA SPP. = assay: Postemergence herbicidal evaluation, IPOSS (Morningglory spp.); details: Rate 0.500 kg/ha
Procedure, shortened: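 Seedlings of morningglory (Ipomoea spp.) were raised in jiffy flats for roughly two weeks. They were then sprayed postemergence through a nozzle at 40 psi with test compound dispersed in 50/50 acetone/water containing 0.5% TWEEN®20 surfactant. Plants were kept on greenhouse benches under standard care and visually rated 0-9 against controls four to five weeks after treatment.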

GALIUM APARINE = assay: Postemergence herbicidal evaluation, GALAP (Galium); design: key to GALAP rating / Herbicidal effect rating, GALAP / GALAP: 0-9 visual rating scale vs untreated control; details: Rate 0.500 kg/ha
Procedure, shortened: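 Galium (GALAP) seedlings were raised in jiffy flats for about two weeks, then sprayed with test compounds dispersed in 50/50 acetone/water containing 0.5% TWEEN®20, delivered through a nozzle at 40 psi. Plants were kept on greenhouse benches and visually rated 0-9 against a control four to five weeks later; repeat tests were averaged.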

[4] = system: ECHINOCHLOA CRUS-GALLI, (L) BEAU; assay: Postemergence herbicidal evaluation, ECHCG (Barnyardgrass); design: key to ECHCG rating / Herbicidal effect rating, ECHCG / ECHCG: 0-9 visual rating scale vs untreated control; details: Rate 0.500 kg/ha
Procedure, shortened: (§1)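 Under usual greenhouse care after spraying, plants were examined four to five weeks on and given a 0–9 score relative to control. Application rate was about 0.125–0.500 kg/ha on ~two-week-old seedlings.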

[5] = system: SETARIA VIRIDIS, (L) BEAU; assay: Postemergence herbicidal evaluation, SETVI (Foxtail, Green); design: key to SETVI rating / Herbicidal effect rating, SETVI / SETVI: 0-9 visual rating scale vs untreated control; details: Rate 0.500 kg/ha
Procedure, shortened: as §1

[6] = system: TRITICUM AESTIVUM, CV. APOLLO; assay: Postemergence herbicidal evaluation, TRZAWO (Wheat, Winter, CV. APOLLO); details: Rate 0.500 kg/ha
Procedure, shortened: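 Wheat seedlings, raised in jiffy flats for roughly two weeks, were sprayed postemergence with test compound dispersed in a 50/50 acetone/water mixture containing 0.5% TWEEN®20 surfactant, delivered through a nozzle at 40 psi. Plants were then kept on greenhouse benches under conventional care. Four to five weeks after treatment they were rated visually on a 0-9 scale against an untreated control, and ratings from repeated tests were averaged.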

ZEA MAYS L. = assay: Postemergence herbicidal evaluation, ZEAMX (Corn, Field); details: Rate 0.500 kg/ha
Procedure, shortened: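 Corn seedlings were raised in jiffy flats for roughly two weeks, then sprayed postemergence with the test material dispersed in 50/50 acetone/water containing 0.5% TWEEN®20 surfactant, using a nozzle at 40 psi. Plants were kept on greenhouse benches under standard care and visually rated on a 0-9 scale four to five weeks after treatment.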

CHENOPODIUM ALBUM, L. [7] = assay: Preemergence herbicidal evaluation, CHEAL (Lambsquarters, Common); details: Rate 0.500 kg/ha, rated four to five weeks after treatment
Procedure, shortened: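 Seeds mixed with potting soil were planted on about one inch of soil in cups, then sprayed with aqueous acetone solution of test compound at about 0.125 to 0.50 kg per hectare. Plants grown under greenhouse conditions; visual rating on a 0-9 scale versus untreated control at 4-5 weeks.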

[8] = system: ORYZA SATIVA, L. TEBONNET; assay: Rice tolerance to post-transplant applications under flooded paddy conditions, ORYSAT (Rice, Tebonnet); details: 0.500 kg/ha, post-transplant rice, 3-4 weeks after treatment
Procedure, shortened: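 Two ten-day-old Tebonnet rice seedlings transplanted into silt loam, flooded 1.5–3 cm; three days later the water surface treated with compounds in acetone/water at about 0.5, 0.25, 0.125 and 0.063 kg/ha. Visual 0–9 injury rating versus control after 3–4 weeks in greenhouse.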

COC(=O)Cn1c(=O)n(C)c(=O)n(-c2cc(Oc3ccccn3)ccc2[N+](=O)[O-])c1=O [Compound 38, Methyl tetrahydro-3-methyl-5-[2-nitro-5-(2-pyridyloxy)phenyl]-2,4,6-trioxo-s-triazine-1(2H)-acetate]
0.0: ABUTH rating [1] | AMBEL rating [2] | CHEAL rating (CHENOPODIUM ALBUM, L. [3]) | IPOSS rating (IPOMOEA SPP.) | GALAP rating (GALIUM APARINE) | ECHCG rating [4] | SETVI rating [5] | TRZAWO rating [6] | ZEAMX rating (ZEA MAYS L.) | CHEAL herbicidal rating (CHENOPODIUM ALBUM, L. [7]) | Herbicidal effect rating, ORYSAT [8]
